Results: PMC8359396, “Pharmacological validation of TDO as a target for Parkinson’s disease” (The Febs Journal, 2021)

Assays:
[1] = system: rotenone‐induced mouse model of PD; experiment: Microglia (Iba1) volume and occupied space in substantia nigra, iDISCO; conditions: P < 0.05
recombinant hIDO1 = recombinant hIDO1 (Homo sapiens, UniProt P14902); experiment: IDO1 biochemical assay (NFK Green); conditions: for inhibition at 0.6 µM: read-out: inhibition hIDO1
[2] = system: rotenone‐induced mouse model of PD; experiment: Spatial memory test in rotenone model; conditions: rotenone mice, 42 days after surgery
GL‐261‐mTDO = biological target: T1, GL‐261‐mTDO (Mus musculus, UniProt P48776); experiment: Cell-based TDO assay, GL‐261‐mTDO cells (pDMAB)
T1 construct: stably overexpressing the full‐length mouse TDO2 cDNA (GL‐261‐mTDO); expressed in transfected cells; host or cells: GL-261

mouse TDO (mTDO) = mouse TDO (mTDO) (Mus musculus, UniProt P48776); experiment: TDO biochemical assay (NFK Green), mTDO
[3] = biological target: T2, human MDR1 P-glycoprotein (ABCB1) (Homo sapiens, UniProt P08183); experiment: Bi‐directional transport assay, MDCK‐MDR1 monolayer; type: in vitro ADME; conditions: dog; MDCK‐MDR1; Elacridar −
T2 construct: host or cells: MDCK (canine kidney)
Protocol: (§1) To determine whether NTRC 3531‐0 could potentially enter the brain, a bi‐directional transport assay was performed with Madin‐Darby canine kidney (MDCK) cells overexpressing the human ABCB1 gene‐encoded MDR1 P‐glycoprotein (MDCK‐MDR1) at Cyprotex (Macclesfield, UK). MDCK‐MDR1 cells form a confluent monolayer in Transwell® cell culture plates (Corning) and express active MDR1 P‐glycoprotein at the apical side. The cell model is a surrogate model of the brain capillary endothelial cell layer that constitutes the blood–brain barrier. The transport of NTRC 3531‐0 from the apical (A) to the basolateral (B) side of the monolayer (P app, A to B), and from basolateral (B) to apical (A) (P app, B to A), was determined by measuring compound levels in the two compartments of the Transwell plates by liquid chromatography–tandem mass spectrometry (LC‐MS/MS) (Table 2). Transport assays were performed in the absence and presence of the P‐glycoprotein inhibitor elacridar.

[4] = biological target: T3, human MDR1 P‐glycoprotein‐overexpressing MDCK cells (Homo sapiens, UniProt P08183); experiment: as above; type: in vitro ADME; conditions: MDCK‐MDR1, with and without elacridar
T3 construct: host or cells: MDCK (canine kidney)
Protocol: as §1

[5] = system: rotenone‐induced mouse model of PD; experiment: Intestinal transit of Evans blue in rotenone model; type: in vivo, male C57BL/6NCrl mice; conditions: P < 0.0001
Protocol: The dye was injected intragastrically, thirty minutes before the sacrifice of the mice. Intestinal transit was measured as the distance travelled by the dye from the pylorus to the most distal part of the colon.

[6] = system: any cell line used in this study; experiment: Cell viability assay (ATPlite 1Step); conditions: in parallel with the cell‐based NFK Green assays
Protocol: In parallel with the cell‐based NFK Green assays, the cytotoxicity of the compounds was determined in cell viability assays using ATPlite™ 1Step (PerkinElmer, Groningen, The Netherlands).

[7] = system: rotenone‐induced mouse model of PD; experiment: TH‐positive (dopaminergic) cells in substantia nigra, iDISCO; type: in vivo, male C57BL/6NCrl mice; conditions: rotenone mice, P < 0.01
[8] = system: rotenone‐induced mouse model of PD; experiment: Rotarod test in rotenone model; type: in vivo, male C57BL/6NCrl mice
Protocol: To investigate the effects of TDO inhibition, both compounds were orally administered once daily from day 7 after induction of the PD model (Fig. 5A). […] In this test, the time spent on an accelerating wheel was used to analyze motor function.
Food and water was provided ad libitum.
Motor function was assessed in the rotarod test by placing mice on an accelerating rod with speeds starting at 2 rpm and gradually increasing to 20 rpm. The latency to fall was recorded for a maximum of 300 s. Baseline motor function was tested seven days after surgery, and subsequently, motor function was tested every seven days until day 42.

[9] = system: rotenone‐induced mouse model of PD; experiment: GFAP immunofluorescent staining of colon in rotenone model; type: in vivo, male C57BL/6NCrl mice; conditions: rotenone mice
Protocol: (§2) Parkinson’s disease is associated with the activation of glial cells in the enteric nervous system. Furthermore, aggregates of α‐synuclein have been observed in the enteric nervous system of PD patients. The expression of glial fibrillary acidic protein (GFAP), a marker of enteric glial cells, and of α‐synuclein was determined by immunofluorescent staining of fixed sections of the colons of the sacrificed mice.
(§3) Expression of GFAP and α‐synuclein in colonic tissue was determined using confocal microscopy (Leica SP8). The colons of the mice were embedded in paraffin. Sections of 15 µm were cut and incubated with 0.3% (v/v) H2O2 for 30 min, rehydrated and incubated with citrate buffer. Following blocking with serum, the sections were incubated overnight with rabbit anti‐α‐synuclein (Millipore, cat. no. AB5038; Burlington, MA, USA) at a dilution of 1 : 1000, or rabbit anti‐GFAP (Dako, cat. no. Z0334), 1 : 1000. After incubation with Alexa® 488‐labeled donkey anti‐rabbit secondary antibody, the slides were mounted using Vectashield® medium for fluorescence with DAPI (Vector Laboratories, cat. no. H‐1000; Burlingame, CA, USA).
(§4) Immunofluorescence images were made using a Keyence BZ‐9000 microscope. GFAP and α‐synuclein staining were quantified by calculation of the corrected total fluorescence (CTF) with the formula: integrated density – (area × mean fluorescence of background reading).

[10] = system: rotenone‐induced mouse model of PD; experiment: Colon length in rotenone model; conditions: rotenone mice, P < 0.05
SW48 (hTDO) = SW48 (hTDO) (Homo sapiens, UniProt P48775); experiment: cell-based
[11] = system: rotenone‐induced mouse model of PD; experiment: α‐Synuclein immunofluorescent staining of colon in rotenone model; type: in vivo, male C57BL/6NCrl mice; conditions: rotenone mice
Protocol: as §2, §3, §4

[12] = biological target: hTDO2‐overexpressing HEK‐293 cells (HEK‐hTDO) (Homo sapiens, UniProt P48775); experiment: Cell-based TDO assay, HEK‐hTDO cells (NFK Green)
[13] = two highest doses (25 and 50 mg·kg^−1)

T2 sequence (P08183 whole entry): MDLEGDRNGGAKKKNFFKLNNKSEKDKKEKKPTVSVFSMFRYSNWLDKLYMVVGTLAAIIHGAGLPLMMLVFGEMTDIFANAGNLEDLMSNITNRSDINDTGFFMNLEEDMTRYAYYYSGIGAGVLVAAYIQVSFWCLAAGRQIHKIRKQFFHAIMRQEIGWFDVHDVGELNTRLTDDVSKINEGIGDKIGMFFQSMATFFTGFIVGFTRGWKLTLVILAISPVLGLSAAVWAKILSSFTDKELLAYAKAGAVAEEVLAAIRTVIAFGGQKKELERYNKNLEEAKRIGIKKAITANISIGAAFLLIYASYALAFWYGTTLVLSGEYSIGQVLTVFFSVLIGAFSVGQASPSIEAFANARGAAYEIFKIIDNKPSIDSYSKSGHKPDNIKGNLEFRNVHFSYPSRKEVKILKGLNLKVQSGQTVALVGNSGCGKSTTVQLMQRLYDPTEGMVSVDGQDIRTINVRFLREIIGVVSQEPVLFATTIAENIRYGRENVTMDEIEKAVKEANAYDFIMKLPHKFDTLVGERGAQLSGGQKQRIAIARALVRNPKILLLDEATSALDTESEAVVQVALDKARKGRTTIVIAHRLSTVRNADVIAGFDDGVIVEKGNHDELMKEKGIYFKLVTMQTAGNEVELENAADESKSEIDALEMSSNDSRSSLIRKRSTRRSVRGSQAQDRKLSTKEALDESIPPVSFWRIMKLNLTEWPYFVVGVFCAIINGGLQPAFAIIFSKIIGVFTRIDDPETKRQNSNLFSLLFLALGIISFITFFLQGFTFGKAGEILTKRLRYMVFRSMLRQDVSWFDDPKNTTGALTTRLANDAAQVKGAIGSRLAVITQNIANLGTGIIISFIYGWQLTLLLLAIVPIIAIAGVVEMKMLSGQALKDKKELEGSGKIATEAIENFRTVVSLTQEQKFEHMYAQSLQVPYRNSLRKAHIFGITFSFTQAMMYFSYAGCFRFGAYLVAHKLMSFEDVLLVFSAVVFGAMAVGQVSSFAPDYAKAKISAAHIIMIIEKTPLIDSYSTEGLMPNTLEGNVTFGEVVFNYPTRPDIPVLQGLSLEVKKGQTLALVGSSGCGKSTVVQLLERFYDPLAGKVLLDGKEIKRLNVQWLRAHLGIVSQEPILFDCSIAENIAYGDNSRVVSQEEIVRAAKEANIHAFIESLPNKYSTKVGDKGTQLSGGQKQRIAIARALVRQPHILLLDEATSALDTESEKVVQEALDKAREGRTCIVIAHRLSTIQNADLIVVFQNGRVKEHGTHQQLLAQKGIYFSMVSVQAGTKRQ
recombinant hIDO1, sequence (P14902 whole entry): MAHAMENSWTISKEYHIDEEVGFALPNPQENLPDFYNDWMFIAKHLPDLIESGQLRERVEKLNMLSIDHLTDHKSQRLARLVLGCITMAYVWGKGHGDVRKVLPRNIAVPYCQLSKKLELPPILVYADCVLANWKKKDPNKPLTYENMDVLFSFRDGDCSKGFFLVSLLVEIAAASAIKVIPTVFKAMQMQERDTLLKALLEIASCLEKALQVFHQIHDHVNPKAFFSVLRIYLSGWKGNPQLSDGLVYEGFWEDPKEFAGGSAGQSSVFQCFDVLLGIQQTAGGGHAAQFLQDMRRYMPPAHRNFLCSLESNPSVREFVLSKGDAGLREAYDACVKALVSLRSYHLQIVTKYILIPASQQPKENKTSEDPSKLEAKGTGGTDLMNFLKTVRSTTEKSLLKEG
hTDO2‐overexpressing HEK‐293 cells (HEK‐hTDO), sequence (P48775 whole entry): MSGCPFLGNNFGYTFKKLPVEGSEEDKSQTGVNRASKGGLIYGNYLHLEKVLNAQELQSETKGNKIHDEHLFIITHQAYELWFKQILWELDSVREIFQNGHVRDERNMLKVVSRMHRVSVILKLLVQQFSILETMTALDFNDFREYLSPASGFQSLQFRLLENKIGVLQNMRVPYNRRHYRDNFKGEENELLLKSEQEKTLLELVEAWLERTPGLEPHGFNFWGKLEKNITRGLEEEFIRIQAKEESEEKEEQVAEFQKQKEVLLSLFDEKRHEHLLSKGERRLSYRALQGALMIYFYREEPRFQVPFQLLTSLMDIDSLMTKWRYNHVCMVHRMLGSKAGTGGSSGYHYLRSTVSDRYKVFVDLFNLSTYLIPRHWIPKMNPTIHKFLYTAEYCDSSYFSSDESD
T1 sequence (P48776 whole entry): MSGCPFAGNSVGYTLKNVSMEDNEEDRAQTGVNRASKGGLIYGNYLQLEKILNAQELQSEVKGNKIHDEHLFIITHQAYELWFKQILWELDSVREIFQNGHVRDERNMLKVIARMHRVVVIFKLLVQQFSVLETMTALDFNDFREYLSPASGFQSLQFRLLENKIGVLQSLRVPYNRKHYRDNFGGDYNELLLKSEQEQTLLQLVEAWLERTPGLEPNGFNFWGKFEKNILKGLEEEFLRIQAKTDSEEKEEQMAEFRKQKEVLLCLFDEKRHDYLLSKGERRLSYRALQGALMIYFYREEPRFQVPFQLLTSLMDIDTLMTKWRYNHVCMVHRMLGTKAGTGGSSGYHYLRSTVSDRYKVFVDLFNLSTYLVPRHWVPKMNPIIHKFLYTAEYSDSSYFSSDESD
mouse TDO (mTDO), sequence (P48776 whole entry): as above
T3 sequence (P08183 whole entry): as the sequence (P08183 whole entry) above
SW48 (hTDO), sequence (P48775 whole entry): as the sequence (P48775 whole entry) above

Structure (SMILES): Fc1ccc2c(/C=C/c3nnn[nH]3)c[nH]c2c1 [LM10, reference compound]
- mean microglia volume in the SN of rotenone‐treated mice ([1]; highest dose (50 mg·kg^−1)): reduced the mean microglia volume
- inhibition at 0.6 µM (recombinant hIDO1): < 20%
- rotenone‐induced spatial recognition loss ([2]; highest dose (50 mg·kg^−1), similar trend): not statistically significant
- inhibition at 0.6 µM (GL‐261‐mTDO; read-out: inhibition GL‐261‐mTDO): 42%
- IC50 (mouse TDO (mTDO)): 1070 nM
- Papp A→B [3]: 5.63 ×10⁻⁶ cm/s
- Papp B→A [3]: 1.58 ×10⁻⁶ cm/s
- P‐glycoprotein substrate status [4]: not a P‐glycoprotein substrate
- intestinal transit of the PD mice [5, 13]: improved the intestinal transit
- cytotoxicity [6]: not cytotoxic
- rotenone‐induced loss of TH‐positive cells in the SN [7, 13]: decreased the rotenone‐induced loss of TH‐positive cells
- motor function (rotarod) of rotenone‐treated mice ([8]; highest dose p.o. once daily: 50 mg·kg^−1, P < 0.05): significantly improved motor function
- GFAP staining in colon ([9]; highest two doses: 25 mg·kg^−1, P < 0.001, 50 mg·kg^−1, P < 0.0001): decrease of GFAP staining
- colon length (rotenone‐induced intestinal inflammatory response) [10, 13]: reduced the rotenone‐induced intestinal inflammatory response
- inhibition at 31.6 µM (SW48 (hTDO); SW48, read-out: inhibition in SW48 cells): 50%
- expression of α‐synuclein in the enteric plexus ([11]; all doses: 12.5 mg·kg^−1, P < 0.01, 25 and 50 mg·kg^−1, P < 0.001): decrease in the expression of α‐synuclein
- inhibition at 0.6 µM ([12]; HEK293, read-out: inhibition HEK‐hTDO): 33%

Structure (SMILES): C[C@@H](CO)NC(=O)c1ccc(-c2c[nH]c3cc(F)ccc23)cc1 [NTRC 3531‐0]
- mean microglia volume in the SN of rotenone‐treated mice ([1]; highest dose (100 mg·kg^−1)): reduced the mean microglia volume
- activity on hIDO1 in the biochemical assay (recombinant hIDO1; highest tested concentration 31.6 µM): inactive
- inhibition at 0.6 µM (recombinant hIDO1): < 20%
- rotenone‐induced spatial recognition loss ([2]; highest dose (100 mg·kg^−1), P < 0.001): significantly less rotenone‐induced spatial recognition loss
- IC50 (GL‐261‐mTDO): 214 nM
- IC50 (mouse TDO (mTDO)): 846 nM
- Papp A→B [3]: 15.7 ×10⁻⁶ cm/s
- Papp B→A [3]: 52 ×10⁻⁶ cm/s
- efflux ratio [3]: 3.32
- P‐glycoprotein substrate status [4]: could be a weak substrate of P‐glycoprotein
- intestinal transit of the PD mice ([5]; highest dose (100 mg·kg^−1)): improved the intestinal transit
- cytotoxicity [6]: not cytotoxic
- rotenone‐induced loss of TH‐positive cells in the SN ([7]; highest dose (100 mg·kg^−1)): decreased the rotenone‐induced loss of TH‐positive cells
- motor function (rotarod) of rotenone‐treated mice ([8]; two highest doses p.o. once daily: 50 mg·kg^−1, P < 0.01 at day 35, 100 mg·kg^−1, P < 0.01): significantly improved motor function
- GFAP staining in colon ([9]; highest two doses (50 and 100 mg·kg^−1), P < 0.0001 for both doses): decrease of GFAP staining
- colon length (rotenone‐induced intestinal inflammatory response) ([10]; highest dose (100 mg·kg^−1)): reduced the rotenone‐induced intestinal inflammatory response
- IC50 (SW48 (hTDO)): 220 nM
- expression of α‐synuclein in the enteric plexus ([11]; all doses: 25 mg·kg^−1, P < 0.05, 50 and 100 mg·kg^−1, P < 0.01): decrease in the expression of α‐synuclein
- IC50 [12]: 816 nM
- selectivity for hTDO over hIDO1, HEK‐293 cell‐based assays [12]: at least 25 times
- IC90 ([12]; HEK293): 2500 nM
